Laboratory results as given in the NIST ThermoML archive (doi:10.1021/je800077r).
± gives the expanded uncertainty stated by the source.

Assays:
[1] = xn = mol fraction of the nth substance listed; conditions: 101 kPa, Liquid; for speed of sound: Sing-around technique in a fixed-path interferometer; for mass density: Vibrating tube method
[2] = refractive index (Na D-line) (dimensionless); xn = mol fraction of the nth substance listed; conditions: 101 kPa, Liquid, Standard Abbe refractometry

| SMILES | speed of sound ([1]; 293.15 K, x1 = 1) [m/s] | mass density ([1]; 293.15 K, x1 = 1) [kg/m3] | speed of sound ([1]; 298.15 K, x1 = 1) [m/s] | mass density ([1]; 298.15 K, x1 = 1) [kg/m3] | speed of sound ([1]; 303.15 K, x1 = 1) [m/s] | mass density ([1]; 303.15 K, x1 = 1) [kg/m3] | refractive index ([2]; 293.15 K, x1 = 1) | refractive index ([2]; 298.15 K, x1 = 1) | refractive index ([2]; 303.15 K, x1 = 1) | speed of sound ([1]; 293.15 K, x2 = 0) [m/s] | mass density ([1]; 293.15 K, x2 = 0) [kg/m3] | speed of sound ([1]; 298.15 K, x2 = 0) [m/s] | mass density ([1]; 298.15 K, x2 = 0) [kg/m3] | speed of sound ([1]; 303.15 K, x2 = 0) [m/s] | mass density ([1]; 303.15 K, x2 = 0) [kg/m3] | refractive index ([2]; 293.15 K, x2 = 0) | refractive index ([2]; 298.15 K, x2 = 0) | refractive index ([2]; 303.15 K, x2 = 0) |
| --- | --- | --- | --- | --- | --- | --- | --- | --- | --- | --- | --- | --- | --- | --- | --- | --- | --- | --- |
| CCCCCC [hexane] + CCOC(C)=O | 1100 ± 2 | 659.5 ± 0.3 | 1078 ± 2 | 654.9 ± 0.3 | 1055 ± 2 | 650.4 ± 0.3 | 1.37495 ± 0.00067 | 1.37217 ± 0.00067 | 1.36936 ± 0.00067 | – | – | – | – | – | – | – | – | – |
| CCOC(C)=O [ethyl acetate] + CCCCCCn1cc[n+](C)c1.F[P-](F)(F)(F)(F)F | – | – | – | – | – | – | – | – | – | 1162 ± 1 | 900.5 ± 0.1 | 1141 ± 1 | 894.4 ± 0.1 | 1111 ± 1 | 888.2 ± 0.1 | 1.37241 ± 0.00061 | 1.36977 ± 0.00061 | 1.36712 ± 0.00062 |
